Data from patent US11014913B2, “Pyridazinones as PARP7 inhibitors” (Ribon Therapeutics Inc., priority 2018, dated 2021).

Assays:
[1] = molecular target: T1, PARP7 (Homo sapiens (Human), UniProt Q7Z3E1); assay: Enzymatic assay for inhibition of PARP7 (TR-FRET displacement of Probe A from the TIPARP active site); assay type: binding
Description: 20 nL of a dose response curve of each test compound was spotted in black 384-well polystyrene proxiplates (Perkin Elmer) using a Mosquito (TTP Labtech). […] Reactions were incubated at 25° C. for an additional 30 min, then read on an Envision platereader equipped with a LANCE/DELFIA top mirror (Perkin Elmer) using excitation of 320 nm and emission of 615 nm and […] with a 90 μs delay. The ratio of the 665/615 nm emission were calculated for each well to determine the amount of complex of TIPARP and Probe A in each well. […] The Hill Coefficient is normally allowed to float but may also be fixed at 1 in a 3-parameter fit. Y is the % inhibition and X is the compound concentration.

[2] = tested on: CT26 cells; assay: Tumor growth in murine syngeneic model CT26 (subcutaneous dosing); assay type: in vivo; conditions: CT26, BALB/c mice
Description: (§1) Example G: Inhibition of Tumor Growth by Treatment with PARP7 Inhibitors
For the CT26 study BALB/c mice were inoculated subcutaneously at the right flank with CT26 cells for tumor development. Four days after tumor inoculation, 36 mice with tumor size ranging from 40-55 mm^3 (average tumor size 47 mm^3) were selected and assigned into 3 groups using stratified randomization with 12 mice in each group based upon their tumor volumes. The treatments were started from the next day post randomization (defined randomization day as day 0) and were treated with vehicle (0.5% methylcellulose +0.2% Tween 80), Compound 98 (500 mg/kg S.C. QD*21 days), Compound 93A (100 mg/kg S.C. BID*21 days) respectively. The tumor sizes were measured three times per week during the treatment. The entire study was terminated on day 21.
(§2) Mean tumor volume and SEM for both studies are plotted. Statistical significance, calculated using two-tailed unpaired t-tests in which each treatment group was compared to vehicle control, is indicated by an asterisk. Statistics were performed on groups with less than 20% animal loss (D21 for CT26, D17 for 4T1).

[3] = tested on: 4T1-luc2-1A4 cells; assay: Tumor growth in murine syngeneic model 4T1 (orthotopic, mammary fat pad); assay type: in vivo; conditions: 4T1, BALB/c mice
Description: as §1
For the 4T1 study female BALB/c mice were inoculated orthotopically in the mammary fat pad with 4T1-luc2-1A4 cells for tumor development. Eight days after tumor inoculation, 45 mice with tumor size ranging from 63-88 mm^3 (average tumor size 67 mm^3) were selected and assigned into 3 groups using stratified randomization with 15 mice in each group based upon their tumor volumes. The treatments were started from the next day post randomization (defined randomization day as D0) and were treated with vehicle (0.5% methylcellulose +0.2% Tween 80), Compound 98 (500 mg/kg S.C. QD*21 days), Compound 93A (100 mg/kg S.C. BID*21 days) respectively. The tumor sizes were measured three times per week during the treatment. The entire study was terminated on D20.
as §2

[4] = molecular target: T1, PARP7; assay: PARP7 inhibition potency (Table A-1); assay type: biochemical; conditions: comparison of separated isomers; see Table A-1
[5] = tested on: NCI-H1373 cells; assay: Tumor growth in human NCI-H1373 lung cancer xenograft (oral dosing); assay type: in vivo, SCID mice; conditions: 62.5 to 500 mg/kg once a day for 28 days
Description: (§3) Example H: Inhibition of Tumor Growth by Oral Dosing with a PARP7 Inhibitor
(§4) The effect of Compound 561 on tumor growth was studied in a human NCI-H1373 lung cancer xenograft and a murine CT26 colon cancer syngeneic model.
For the NCI-H1373 study, SCID mice were inoculated subcutaneously in the right flank with NCI-H1373 cells for tumor development. After 5 days of tumor growth, mice with 89-148 mm^3 tumors were randomized into treatment groups with mean tumor volumes of 121 mm^3. The treatments were started from the next day post randomization (defined randomization day as day 0) and were treated with vehicle (50% Labrasol) or Compound 561 (62.5, 125, 250, and 500 mg/kg) once a day for 28 days by oral gavage. Tumor volumes were determined by manual calipers every 2-3 days. Mean tumor volume and SEM are plotted. QD: once a day; PO: per oral administration. Statistical significance is calculated using two-way ANOVA followed by Bonferroni post-tests in which the treatment groups were compared to vehicle control (**** P<0.0001).

[6] = tested on: CT26 cells; assay: Tumor growth in murine CT26 colon cancer syngeneic model (oral dosing); assay type: in vivo; conditions: CT26, BALB/c mice, BID 125-500 mg/kg or QD 500 mg/kg, 21 days
Description: as §3, §4
For the CT26 study, BALB/c mice were inoculated subcutaneously in the right flank with CT26 cells for tumor development. After 5 days of cell inoculation, mice with 36-79 mm^3 tumors were randomized into treatment groups with mean tumor volumes of 54 mm^3. The treatments were started from the next day post randomization (defined randomization day as day 0) and were treated with vehicle (25 or 50% Labrasol) or Compound 561 BID (2 times a day every 12 hours) at doses ranging from 125-500 mg/kg or QD (once a day) at 500 mg/kg for 21 days by oral gavage or needle subcutaneously. Tumor volumes were determined by manual calipers every 2-3 days. Mean tumor volume and SEM are plotted. BID: twice a day; PO: per oral administration; QD: once a day; SC: per subcutaneous administration. The first two doses for vehicle and Compound 561 500 mg/kg in the QD groups were delivered by subcutaneous injection. […] Statistical significance is calculated using two-way ANOVA followed by Bonferroni post-tests in which the treatment groups were compared to vehicle control (**** P<0.0001).

T1 sequence (Q7Z3E1 whole entry): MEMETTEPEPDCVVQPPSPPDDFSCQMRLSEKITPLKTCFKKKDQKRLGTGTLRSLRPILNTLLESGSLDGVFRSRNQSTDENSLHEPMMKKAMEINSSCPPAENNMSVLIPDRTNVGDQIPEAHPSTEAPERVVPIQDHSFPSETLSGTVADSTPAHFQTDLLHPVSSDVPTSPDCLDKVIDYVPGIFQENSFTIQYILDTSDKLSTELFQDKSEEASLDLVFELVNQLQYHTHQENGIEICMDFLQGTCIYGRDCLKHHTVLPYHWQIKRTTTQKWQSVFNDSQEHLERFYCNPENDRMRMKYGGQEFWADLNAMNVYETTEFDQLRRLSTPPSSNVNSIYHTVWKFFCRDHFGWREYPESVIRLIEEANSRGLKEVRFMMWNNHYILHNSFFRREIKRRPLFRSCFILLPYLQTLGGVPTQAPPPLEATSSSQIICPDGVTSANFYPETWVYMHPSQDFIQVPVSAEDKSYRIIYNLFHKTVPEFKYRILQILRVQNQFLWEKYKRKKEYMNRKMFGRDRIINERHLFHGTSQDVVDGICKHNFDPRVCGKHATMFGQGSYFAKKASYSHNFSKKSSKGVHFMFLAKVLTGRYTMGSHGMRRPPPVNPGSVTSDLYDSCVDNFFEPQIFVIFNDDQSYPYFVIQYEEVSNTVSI

In the case of “5-[[(2R)-1-[3-[4-(5-chloropyrimidin-2-yl)piperazin-1-yl]-3-oxopropoxy]-3-methoxypropan-2-yl]oxy]-4-(trifluoromethyl)-2,3-dihydropyridazin-3-one [Example 560 Isomer D]”, the IC50 [1] is reported as 100 to 1000 nM.

`N#Cc1ccc(N2CCN(C(=O)CCOC[C@@H]3CCCN3c3cn[nH]c(=O)c3C(F)(F)F)CC2)nc1` [Example 98, 6-[4-(3-[[(2S)-1-[6-Oxo-5-(trifluoromethyl)-1,6-dihydropyridazin-4-yl]pyrrolidin-2-yl]methoxy]propanoyl)piperazin-1-yl]pyridine-3-carbonitrile] was tested, and the tumor growth ([2]; 500 mg/kg S.C. QD*21 days) was “significantly reduce tumor growth” and the tumor growth ([3]; 500 mg/kg S.C. QD*21 days) was “significantly reduce tumor growth”.

For `N#Cc1ccc(N2CCN(C(=O)c3cccc(OC[C@@H]4c5ccccc5CN4c4cn[nH]c(=O)c4C(F)(F)F)c3)CC2)nc1` (single isomer, unassigned) [Example 18 Isomer B], the “relative potency of the enantiomers” value [4] was “more potent enantiomer”.

`C[C@@H](COCCC(=O)N1CCN(c2ncc(C(F)(F)F)cn2)CC1)Nc1cn[nH]c(=O)c1C(F)(F)F` [Example 561, 5-[[(2S)-1-(3-oxo-3-[4-[5-(trifluoromethyl)pyrimidin-2-yl]piperazin-1-yl]propoxy)propan-2-yl]amino]-4-(trifluoromethyl)-2,3-dihydropyridazin-3-one] was tested, and the tumor regression [5] was “complete tumor regression at all dose levels” and the tumor growth [6] was “significantly reduces tumor growth”.

Compound “5-[(2R)-2-[3-[4-(5-chloropyrimidin-2-yl)piperazin-1-yl]-3-oxopropoxy]-3-methoxypropoxy]-4-(trifluoromethyl)-2,3-dihydropyridazin-3-one [Example 560 Isomer B]” has an IC50 [1] of 100 to 1000 nM.

In the case of `N#Cc1ccc(N2CCN(C(=O)CNCC[C@@H]3c4ccccc4CN3c3cn[nH]c(=O)c3C(F)(F)F)CC2)nc1` [Example 144B, 6-[4-[2-([2-[(1R)-2-[6-oxo-5-(trifluoromethyl)-1,6-dihydropyridazin-4-yl]-2,3-dihydro-1H-isoindol-1-yl]ethyl]amino)acetyl]piperazin-1-yl]pyridine-3-carbonitrile], the IC50 [1] is reported as 100 to 1000 nM.

For “5-[[(2S)-1-[3-[4-(5-chloropyrimidin-2-yl)piperazin-1-yl]-3-oxopropoxy]-3-methoxypropan-2-yl]oxy]-4-(trifluoromethyl)-2,3-dihydropyridazin-3-one [Example 560 Isomer C]”, the IC50 [1] was < 100 nM.

In the case of `N#Cc1ccc(N2CCN(C(=O)CCOC[C@@H]3c4ccccc4CN3c3cn[nH]c(=O)c3C(F)(F)F)CC2)nc1` [Example 93A, 6-[4-(3-[[(1S)-2-[6-oxo-5-(trifluoromethyl)-1,6-dihydropyridazin-4-yl]-2,3-dihydro-1H-isoindol-1-yl]methoxy]propanoyl)piperazin-1-yl]pyridine-3-carbonitrile], the tumor growth ([2]; 100 mg/kg S.C. BID*21 days) is reported as “significantly reduce tumor growth” and the tumor growth ([3]; 100 mg/kg S.C. BID*21 days) is reported as “significantly reduce tumor growth”.
